Measured values as given in patent US7265121B2, “Chemical compounds” (Eli Lilly and Company, priority 2001, dated 2007).

How the values were obtained:
human factor Xa = biological target: T1, human factor Xa (Homo sapiens, UniProt P00742); experiment: Enzyme inhibition assay: apparent association constant (Kass) for human factor Xa, chromogenic substrate hydrolysis; format: biochemical; conditions: human factor Xa 3.2 nM, BzIleGluGlyArgpNA substrate, approximately inverse of Ki
T1 construct: 25 μL human factor Xa (32 nM in 0.03 M tris, 0.15 M NaCl, 1 mg/mL HSA); purchased Enzyme Research Laboratories (South Bend, Ind., USA)
Experimental: Human factor Xa and human thrombin are purchased from Enzyme Research Laboratories (South Bend, Ind., USA). Other proteases are from other commercial sources. Chromogenic para-nitroanilide peptide protease substrates are purchased from Midwest Biotech (Fishers, Ind., USA).
The binding affinities for human factor Xa are were measured as apparent association constants (Kass) derived from protease inhibition kinetics as described previously.^a,b,c,d The apparent Kass values are obtained using automated (BioMek-1000) dilutions of inhibitors (Kass determinations are performed in triplicate at each of four-eight inhibitor concentrations) into 96-well plates and chromogenic substrate hydrolysis rates determined at 405 nm using a Thermomax plate reader from Molecular Devices (San Francisco). For factor Xa inhibition, the assay protocol is: 50 μL buffer (0.06 M tris, 0.3 M NaCl, pH 7.4); 25 μL inhibitor test solution (in MeOH); 25 μL human factor Xa (32 nM in 0.03 M tris, 0.15 M NaCl, 1 mg/mL HSA); finally, 150 μL BzIleGluGlyArgpNA (0.3 mM in water) added within 2 min to start hydrolysis. Final [factor Xa] is 3.2 nM. [Free Xa] and [bound Xa] are determined from linear standard curves on the same plate by use of SoftmaxPro software for each inhibitor concentration and apparent Kass calculated for each inhibitor concentration which produced hydrolysis inhibition between 20% and 80% of the control (3.2 nM factor Xa): apparent Kass [E:I]/[Ef][If]=[Eb]/[Ef][I^o−Ib]. The apparent Kass values so obtained are approximately the inverse of the Ki for the respective inhibitors [1/appKass=app Ki]. The variability of mean apparent Kass values determined at the single substrate concentration is +/−15%. The assay system Km was measured as 0.347+/−0.031 mM [n=4]; and Vmax was 13.11+/−0.76 μM/min.

T1 sequence (P00742 235-488 limits assumed): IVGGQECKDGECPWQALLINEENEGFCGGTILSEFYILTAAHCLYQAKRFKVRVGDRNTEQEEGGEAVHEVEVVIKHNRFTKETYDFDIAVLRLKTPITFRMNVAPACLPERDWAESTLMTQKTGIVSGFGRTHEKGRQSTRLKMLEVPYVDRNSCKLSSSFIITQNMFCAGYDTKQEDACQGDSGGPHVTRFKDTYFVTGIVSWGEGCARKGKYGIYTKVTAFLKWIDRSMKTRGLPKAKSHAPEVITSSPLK
T1 sequence (P00742 41-179 partner limits assumed): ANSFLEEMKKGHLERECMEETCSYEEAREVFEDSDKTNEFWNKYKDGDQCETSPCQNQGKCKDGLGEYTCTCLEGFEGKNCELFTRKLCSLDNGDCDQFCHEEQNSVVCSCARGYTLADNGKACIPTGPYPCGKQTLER

| melting point | Kass (human factor Xa) | SMILES |
| --- | --- | --- |
| 170 to 180 °C (dec.) |  | C#CC[C@@H](NC(=O)c1ccc2cc[nH]c2c1)C(=O)N1CCN(C2CCN(C)CC2)CC1.Cl |
|  | ~8.9e+07 L/mol | CC(C)[C@@H](NC(=O)c1ccc2cc[nH]c2c1)C(=O)N1CCC(C2CCN(C)CC2)CC1.Cl [Example 9, 1-(Indole-6-carbonyl-D-valinyl)-4-(1-methylpiperidin-4-yl)piperidine Hydrochloride] |
| 170 to 175 °C (dec.) |  | C=CC[C@@H](NC(=O)c1cc2cc(Cl)ccc2[nH]1)C(=O)N1CCN(C2CCN(C)CC2)CC1.Cl |
| 130 to 135 °C (dec.) |  | C=CC[C@@H](NC(=O)c1cc2ccc(Cl)cc2s1)C(=O)N1CCN(C2CCN(C)CC2)CC1.Cl |
| 115 to 135 °C (dec.) |  | C#CC[C@@H](NC(=O)c1cc2ccc(Cl)cc2s1)C(=O)N1CCN(C2CCN(C)CC2)CC1.Cl |
| 110 to 115 °C (dec.) |  | C=CC[C@@H](NC(=O)c1ccc2cc[nH]c2c1)C(=O)N1CCN(C2CCN(C)CC2)CC1.Cl |
|  | about 20 ×10^6 L/mole | COc1ccc(C(=O)N[C@@H](C(=O)N2CCC(C3CCN(C)CC3)CC2)C(C)C)cc1.Cl [Example 6, 1-(4-Methoxybenzoyl-D-valinyl)-4-(1-methylpiperidin-4-yl)-piperidine Hydrochloride] |
| 174 to 185 °C (dec.) |  | C#CC[C@@H](NC(=O)c1cc2cc(Cl)ccc2[nH]1)C(=O)N1CCN(C2CCN(C)CC2)CC1.Cl |
|  | ~3.58e+08 L/mol | CC(C)[C@@H](NC(=O)c1cc2cc(Cl)ccc2[nH]1)C(=O)N1CCN(C2CCN(C)CC2)CC1.Cl [Example 18, 1-(5-Chloroindole-2-carbonyl-D-valinyl)-4-(1-methylpiperidin-4-yl)piperazine Hydrochloride] |
